These results are taken from patent publication US20240294531A1, “COVALENT HETEROCYCLES AND USES THEREOF” (Kumquat Biosciences Inc., priority 2022, published 2024).

The structures appear in SMILES notation.

The term IC50 denotes the concentration that gives 50% inhibition. What is called Ki is the dissociation constant of the complex between target and ligand, obtained from inhibition or displacement. Low values mean tighter binding, high ones weaker binding.

Chain of BTK C481S protein (Q06187 2-659 C481S): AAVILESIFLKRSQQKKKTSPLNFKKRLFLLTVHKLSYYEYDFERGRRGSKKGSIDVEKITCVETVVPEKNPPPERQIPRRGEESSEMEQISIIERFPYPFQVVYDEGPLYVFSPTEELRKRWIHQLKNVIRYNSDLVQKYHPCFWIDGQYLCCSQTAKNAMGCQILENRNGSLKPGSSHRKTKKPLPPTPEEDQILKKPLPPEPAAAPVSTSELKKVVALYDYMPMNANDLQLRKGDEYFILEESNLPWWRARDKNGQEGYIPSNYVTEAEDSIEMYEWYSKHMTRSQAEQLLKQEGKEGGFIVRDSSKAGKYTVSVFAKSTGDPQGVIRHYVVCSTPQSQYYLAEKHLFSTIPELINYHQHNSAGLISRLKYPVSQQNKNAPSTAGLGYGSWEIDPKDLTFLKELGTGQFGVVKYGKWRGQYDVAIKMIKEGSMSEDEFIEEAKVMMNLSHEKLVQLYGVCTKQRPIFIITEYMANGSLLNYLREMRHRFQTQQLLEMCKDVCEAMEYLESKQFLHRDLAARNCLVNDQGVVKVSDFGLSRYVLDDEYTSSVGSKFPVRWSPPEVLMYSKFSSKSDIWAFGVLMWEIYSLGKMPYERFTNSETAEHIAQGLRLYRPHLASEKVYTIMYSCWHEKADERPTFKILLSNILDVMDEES

In the first assay the target is BTK wildtype protein (Homo sapiens (Human), UniProt Q06187). In words: BTK wildtype HTRF displacement assay. Format: binding. The settings on record: 1-hour incubation; read-out: BTK (wt) IC50. The procedure: (§1) The ability of a compound to bind BTK wildtype or BTK C481S proteins was measured using an HTRF displacement assay. The assay measures the ability of a compound to displace a tracer ligand bound to the active site of BTK wildtype or BTK C481 S proteins.
Chain of BTK wildtype protein (Q06187 2-659): as the sequence (Q06187 2-659 C481S) above, with S480C counted along it
(§2) Test compounds were prepared as 10 mM stock solutions in DMSO (Fisher cat #BP231-100). Compounds to be assayed were dispensed using an Echo 650 acoustic dispenser (Beckman Coulter) on a 384 well plate in 6 doses applying four-fold dilutions from the highest concentration of 5 μM. N-terminal GST-tagged recombinant full-length BTK wildtype protein and BTK C481 S protein 2-659 were purchased from Carna Biosciences, Inc (Kobe, Japan). BTK wildtype or BTK C481S protein was separately incubated with compound in assay buffer containing kinase tracer 239 (Thermo Fisher) and Mab anti GST-Th (PerkinElmer). After a 1-hour incubation at room temperature, the HTRF signal was measured using SPARK plate reader (Tecan) using the TR fluorescence mode. The HTRF ratio is calculated for DMSO, no protein control and compound samples using the following equation: HTRF ratio=Emmision665/Emmision620×10^4. The signal for the no protein control samples was used to subtract background noise from the DMSO and compound samples. Background subtracted HTRF ratios are used to calculate the percent inhibition, where DMSO controls are set to 0 percent inhibition. The percent inhibition is plotted as a function of compound concentration and IC50 values were calculated from a four-parameter logistic fit in Prism v9.4 (GraphPad), where the bottom and top are constrained to 0 and 100, respectively.
A general note: TR-FRET usually uses a lanthanide donor and a delayed reading to cut background.
For `CN(C(=O)n1cncn1)C1CCC(n2nc(-c3ccc(Oc4ccccc4)cc3)c(C(N)=O)c2N)C1` (stereo not drawn) [Compound 295, N-(3-(5-amino-4-carbamoyl-3-(4-phenoxyphenyl)-1H-pyrazol-1-yl)cyclopentyl)-N-methyl-1H-1,2,4-triazole-1-carboxamide], the IC50 was no more than 1000 nM.

As to `CN(C(=O)n1cncn1)C1CCCC(n2nc(-c3ccc(Oc4ccccc4)cc3)c3c(N)ncnc32)C1` (stereo not drawn) [Compound 233, N-(3-(4-amino-3-(4-phenoxyphenyl)-1H-pyrazolo[3,4-d]pyrimidin-1-yl)cyclohexyl)-N-methyl-1H-1,2,4-triazole-1-carboxamide], the IC50 was no more than 1000 nM.

With `COc1ccc(F)cc1C(=O)NCc1ccc(-c2nn(C3CCC(N(C)C(=O)n4cncn4)C3)c(N)c2C(N)=O)cc1` (stereo not drawn) [Compound 201, N-(3-(5-amino-4-carbamoyl-3-(4-((5-fluoro-2-methoxybenzamido)methyl)phenyl)-1H-pyrazol-1-yl)cyclopentyl)-N-methyl-1H-1,2,4-triazole-1-carboxamide], the IC50 was no more than 1000 nM.

As to `COc1ccc(F)cc1C(=O)NCc1ccc(-c2nn(C3CCCC4(CCN4C(=O)n4cncn4)C3)c3ncnc(N)c23)cc1` (stereo not drawn) [Compound 236, N-(4-(1-(1-(1H-1,2,4-triazole-1-carbonyl)-1-azaspiro[3.5]nonan-6-yl)-4-amino-1H-pyrazolo[3,4-d]pyrimidin-3-yl)benzyl)-5-fluoro-2-methoxybenzamide], the IC50 was no more than 1000 nM.

Take `CN(C(=O)n1cncn1)C1CCCCC(n2nc(-c3ccc(Oc4ccccc4)cc3)c3c(N)ncnc32)C1` (stereo not drawn) [Compound 314, N-(3-(4-amino-3-(4-phenoxyphenyl)-1H-pyrazolo[3,4-d]pyrimidin-1-yl)cycloheptyl)-N-methyl-1H-1,2,4-triazole-1-carboxamide]: the IC50 is no more than 1000 nM.

Consider `NC(=O)c1c(-c2ccc(Oc3ccccc3)cc2)nn2c1NCCC2C1CCCN(C(=O)n2cncn2)C1` (stereo not drawn) [Compound 283, 7-(1-(1H-1,2,4-triazole-1-carbonyl)piperidin-3-yl)-2-(4-phenoxyphenyl)-4,5,6,7-tetrahydropyrazolo[1,5-a] pyrimidine-3-carboxamide], for which the IC50 is greater than 1000 nM.

With `COc1ccc(F)cc1C(=O)NCc1ccc(-c2nn(C3CCCCC(N(C)C(=O)n4cncn4)C3)c3ncnc(N)c23)cc1` (stereo not drawn) [Compound 278, N-(3-(4-amino-3-(4-((5-fluoro-2-methoxybenzamido)methyl)phenyl)-1H-pyrazolo[3,4-d]pyrimidin-1-yl)cycloheptyl)-N-methyl-1H-1,2,4-triazole-1-carboxamide], the IC50 was no more than 1000 nM.

Turning to `COc1ccc(F)cc1C(=O)NCc1ccc(-c2nn(C3CCCC(N(C)C(=O)n4cncn4)C3)c3ncnc(N)c23)cc1` (stereo not drawn) [Compound 290, N-(3-(4-amino-3-(4-((5-fluoro-2-methoxybenzamido)methyl)phenyl)-1H-pyrazolo[3,4-d]pyrimidin-1-yl)cyclohexyl)-N-methyl-1H-1,2,4-triazole-1-carboxamide], the IC50 is no more than 1000 nM.

As for `CN(C(=O)n1cncn1)C1CCC(n2nc(-c3ccc(Oc4ccccc4)cc3)c3c(N)ncnc32)C1` (stereo not drawn) [Compound 216, N-(3-(4-amino-3-(4-phenoxyphenyl)-1H-pyrazolo[3,4-d]pyrimidin-1-yl)cyclopentyl)-N-methyl-1H-1,2,4-triazole-1-carboxamide], the IC50 was no more than 1000 nM.

The target in the next assay is BTK C481S protein (Homo sapiens (Human), UniProt Q06187, C481S). The assay can be described thus: BTK C481S HTRF displacement assay. It is filed as binding. The settings on record: 1-hour incubation. The method, then:
as §1, §2
The same assay was used to measure the activity of selected compounds of the formula TBM-L-hydrogen. Using the IC50 value observed for a given reversible test compound, the KI of the test compound can be assessed using the formula KI=IC50/(1+([Tracer]/Kd)), wherein the tracer concentration in the assay [Tracer] is 50 nM and the tracer Kd for BTK C481S is 54 nM.
On to `COc1ccc(F)cc1C(=O)NCc1ccc(-c2nn(C3CCCCC(N(C)C(=O)n4cncn4)C3)c3ncnc(N)c23)cc1` (stereo not drawn) [Compound 147, N-(3-(4-amino-3-(4-((5-fluoro-2-methoxybenzamido)methyl)phenyl)-1H-pyrazolo[3,4-d]pyrimidin-1-yl)cycloheptyl)-N-methyl-1H-1,2,4-triazole-1-carboxamide], for which the IC50 was no more than 1000 nM.

`CN(C(=O)n1cncn1)C1CCCC(n2nc(-c3ccc(Oc4ccccc4)cc3)c3c(N)ncnc32)C1` (stereo not drawn) [Compound 160, N-(3-(4-amino-3-(4-phenoxyphenyl)-1H-pyrazolo[3,4-d]pyrimidin-1-yl)cyclohexyl)-N-methyl-1H-1,2,4-triazole-1-carboxamide] came in with an IC50 of no more than 1000 nM.

Consider `CN(C(=O)n1cncn1)C1CCCCC(n2nc(-c3ccc(Oc4ccccc4)cc3)c3c(N)ncnc32)C1` (stereo not drawn) [Compound 118, N-(3-(4-amino-3-(4-phenoxyphenyl)-1H-pyrazolo[3,4-d]pyrimidin-1-yl)cycloheptyl)-N-methyl-1H-1,2,4-triazole-1-carboxamide], for which the IC50 was no more than 1000 nM.

Consider `CN(C(=O)n1cncn1)C1CCC(n2nc(-c3ccc(Oc4ccccc4)cc3)c(C(N)=O)c2N)C1` (stereo not drawn) [Compound 302, N-(3-(5-amino-4-carbamoyl-3-(4-phenoxyphenyl)-1H-pyrazol-1-yl)cyclopentyl)-N-methyl-1H-1,2,4-triazole-1-carboxamide], for which the IC50 is no more than 1000 nM.

Compound `COc1ccc(F)cc1C(=O)NCc1ccc(-c2nn(C3CCCC(N(C)C(=O)n4cncn4)C3)c3ncnc(N)c23)cc1` (stereo not drawn) [Compound 177, N-(3-(4-amino-3-(4-((5-fluoro-2-methoxybenzamido)methyl)phenyl)-1H-pyrazolo[3,4-d]pyrimidin-1-yl)cyclohexyl)-N-methyl-1H-1,2,4-triazole-1-carboxamide] yielded an IC50 of no more than 1000 nM.

Regarding `COc1ccc(F)cc1C(=O)NCc1ccc(-c2nn(C(C)C(C)CN(C)C(=O)n3cncn3)c3ncnc(N)c23)cc1` (stereo not drawn) [Compound 189, N-(3-(4-amino-3-(4-((5-fluoro-2-methoxybenzamido)methyl)phenyl)-1H-pyrazolo[3,4-d]pyrimidin-1-yl)-2-methylbutyl)-N-methyl-1H-1,2,4-triazole-1-carboxamide], the 50% inhibitory concentration (IC50) is no more than 1000 nM.

Take `CN(C(=O)n1cncn1)C1CCC(n2nc(-c3ccc(Oc4ccccc4)cc3)c3c(N)ncnc32)C1` (stereo not drawn) [Compound 116, N-(3-(4-amino-3-(4-phenoxyphenyl)-1H-pyrazolo[3,4-d]pyrimidin-1-yl)cyclopentyl)-N-methyl-1H-1,2,4-triazole-1-carboxamide]: the IC50 is no more than 1000 nM.

`COc1ccc(F)cc1C(=O)NCc1ccc(-c2nn(C(C)CC3CCCN3C(=O)n3cncn3)c3ncnc(N)c23)cc1` (stereo not drawn) [Compound 166, N-(4-(1-(1-(1-(1H-1,2,4-triazole-1-carbonyl)pyrrolidin-2-yl)propan-2-yl)-4-amino-1H-pyrazolo[3,4-d]pyrimidin-3-yl)benzyl)-5-fluoro-2-methoxybenzamide] showed an IC50 of no more than 1000 nM.

On to `NC(=O)c1c(-c2ccc(Oc3ccccc3)cc2)nn2c1NCCC2C1CCN1C(=O)n1cncn1` (stereo not drawn) [Compound 180, 7-(1-(1H-1,2,4-triazole-1-carbonyl)azetidin-2-yl)-2-(4-phenoxy-phenyl)-4,5,6,7-tetrahydropyrazolo [1,5-a]pyrimidine-3-carboxamide], for which the IC50 is greater than 1000 nM.

Staying with this assay, now noted: TBM-L-hydrogen compounds; KI=IC50/(1+([Tracer]/Kd)), [Tracer] 50 nM, Kd 54 nM.
In turn, `COc1ccc(C)cc1C(=O)NCc1ccc(-c2nn(CC3CCCCN3)c3ncnc(N)c23)cc1` (stereo not drawn) [reference compound] registered a Ki of less than 600 nM.

Consider `COc1ccc(F)cc1C(=O)NCc1ccc(-c2nn(CCNC3CC3)c3ncnc(N)c23)cc1` [reference compound], for which the Ki is less than 660 nM.

`CCNCC1CCNc2c(C(N)=O)c(-c3ccc(Oc4ccccc4)cc3)nn21` (stereo not drawn) [reference compound] gave a Ki of less than 1000 nM.
